Reference: the supplement of paper PMC10307832

Experiments:
Assay in all cases: relative viability (nuclei count vs DMSO), 5 days (fraction); higher = more cells survive
[1] = tested on: NCI-H441
Summary of the method: (§1)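 Relative viability is defined as nuclei in treated wells over nuclei in vehicle wells. Duplicate plates were run and medians reported. Lung cancer cell lines in 1536-well plates were dosed by pin tool one day after seeding, with one drug or with a fixed anchor-drug dose plus five library-drug doses (not always all listed) in √10 steps, and nuclei were counted after 5 days.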

[2] = tested on: NCI-H838
Summary of the method: as §1

[3] = tested on: LCLC-103H
Summary of the method: as §1

[4] = tested on: NCI-H2087
Summary of the method: as §1

[5] = tested on: NCI-H647
Summary of the method: as §1

[6] = tested on: LOU-NH91
Summary of the method: as §1

[7] = tested on: NCI-H650
Summary of the method: as §1

[8] = tested on: NCI-H2126
Summary of the method: as §1

[9] = tested on: NCI-H1395
Summary of the method: as §1

[10] = tested on: HARA
Summary of the method: as §1

[11] = tested on: HCC-44
Summary of the method: as §1

[12] = tested on: 201T
Summary of the method: as §1

[13] = tested on: NCI-H23
Summary of the method: as §1

[14] = tested on: EMC-BAC-2
Summary of the method: as §1

[15] = tested on: NCI-H1993
Summary of the method: as §1

[16] = tested on: NCI-H596
Summary of the method: as §1

[17] = tested on: NCI-H3122
Summary of the method: as §1

[18] = tested on: NCI-H2347
Summary of the method: as §1

[19] = tested on: NCI-H2023
Summary of the method: as §1

[20] = tested on: NCI-H1666
Summary of the method: as §1

[21] = tested on: NCI-H2009
Summary of the method: as §1

[22] = tested on: BEN
Summary of the method: as §1

[23] = tested on: NCI-H727
Summary of the method: as §1

CC1(C)CCC(c2ccc(Cl)cc2)=C(CN2CCN(c3ccc(C(=O)NS(=O)(=O)c4ccc(N[C@H](CCN5CCOCC5)CSc5ccccc5)c(S(=O)(=O)C(F)(F)F)c4)cc3)CC2)C1 [Navitoclax] + Nc1ncn([C@H]2C[C@H](O)[C@@H](CO)O2)c(=O)n1 [Decitabine] (partner 2 µM)
relative viability ([1]; first compound 0.005 µM): 0.255 | relative viability ([1]; first compound 0.01581 µM): 0.217 | relative viability ([1]; first compound 0.05 µM): 0.207 | relative viability ([1]; first compound 0.1581 µM): 0.2 | relative viability ([1]; first compound 0.5 µM): 0.237 | relative viability ([2]; first compound 0.005 µM): 0.457 | relative viability ([2]; first compound 0.01581 µM): 0.506 | relative viability ([2]; first compound 0.05 µM): 0.47 | relative viability ([2]; first compound 0.1581 µM): 0.423 | relative viability ([2]; first compound 0.5 µM): 0.46 | relative viability ([3]; first compound 0.005 µM): 0.701 | relative viability ([3]; first compound 0.01581 µM): 0.879 | relative viability ([3]; first compound 0.05 µM): 0.764 | relative viability ([3]; first compound 0.1581 µM): 0.703 | relative viability ([3]; first compound 0.5 µM): 0.698 | relative viability ([4]; first compound 0.005 µM): 0.277 | relative viability ([4]; first compound 0.01581 µM): 0.314 | relative viability ([4]; first compound 0.1581 µM): 0.231 | relative viability ([4]; first compound 0.5 µM): 0.266 | relative viability ([5]; first compound 0.005 µM): 0.403 | relative viability ([5]; first compound 0.01581 µM): 0.413 | relative viability ([5]; first compound 0.05 µM): 0.409 | relative viability ([5]; first compound 0.1581 µM): 0.275 | relative viability ([5]; first compound 0.5 µM): 0.32 | relative viability ([6]; first compound 0.005 µM): 0.798 | relative viability ([6]; first compound 0.01581 µM): 0.88 | relative viability ([6]; first compound 0.05 µM): 0.79 | relative viability ([6]; first compound 0.1581 µM): 0.711 | relative viability ([6]; first compound 0.5 µM): 0.391 | relative viability ([7]; first compound 0.005 µM): 0.331 | relative viability ([7]; first compound 0.01581 µM): 0.298 | relative viability ([7]; first compound 0.05 µM): 0.32 | relative viability ([7]; first compound 0.1581 µM): 0.336 | relative viability ([7]; first compound 0.5 µM): 0.264 | relative viability ([8]; first compound 0.005 µM): 0.595 | relative viability ([8]; first compound 0.01581 µM): 0.647 | relative viability ([8]; first compound 0.05 µM): 0.522 | relative viability ([8]; first compound 0.1581 µM): 0.547 | relative viability ([8]; first compound 0.5 µM): 0.564 | relative viability ([9]; first compound 0.005 µM): 0.706 | relative viability ([9]; first compound 0.01581 µM): 0.701 | relative viability ([9]; first compound 0.05 µM): 0.724 | relative viability ([9]; first compound 0.1581 µM): 0.713 | relative viability ([9]; first compound 0.5 µM): 0.699 | relative viability ([10]; first compound 0.005 µM): 0.463 | relative viability ([10]; first compound 0.01581 µM): 0.736 | relative viability ([10]; first compound 0.05 µM): 0.414 | relative viability ([10]; first compound 0.1581 µM): 0.622 | relative viability ([10]; first compound 0.5 µM): 0.466 | relative viability ([11]; first compound 0.005 µM): 0.921 | relative viability ([11]; first compound 0.01581 µM): 0.867 | relative viability ([11]; first compound 0.05 µM): 0.903 | relative viability ([11]; first compound 0.1581 µM): 0.861 | relative viability ([11]; first compound 0.5 µM): 0.898 | relative viability ([12]; first compound 0.005 µM): 0.891 | relative viability ([12]; first compound 0.01581 µM): 0.869 | relative viability ([12]; first compound 0.05 µM): 0.77 | relative viability ([12]; first compound 0.1581 µM): 0.824 | relative viability ([12]; first compound 0.5 µM): 0.859 | relative viability ([13]; first compound 0.005 µM): 0.287 | relative viability ([13]; first compound 0.01581 µM): 0.32 | relative viability ([13]; first compound 0.05 µM): 0.307 | relative viability ([13]; first compound 0.1581 µM): 0.331 | relative viability ([13]; first compound 0.5 µM): 0.272 | relative viability ([14]; first compound 0.005 µM): 0.943 | relative viability ([14]; first compound 0.01581 µM): 1.03 | relative viability ([14]; first compound 0.05 µM): 0.963 | relative viability ([14]; first compound 0.1581 µM): 0.915 | relative viability ([14]; first compound 0.5 µM): 0.911 | relative viability ([15]; first compound 0.005 µM): 0.659 | relative viability ([15]; first compound 0.01581 µM): 0.751 | relative viability ([15]; first compound 0.05 µM): 0.62 | relative viability ([15]; first compound 0.1581 µM): 0.56 | relative viability ([15]; first compound 0.5 µM): 0.596 | relative viability ([16]; first compound 0.005 µM): 1.04 | relative viability ([16]; first compound 0.01581 µM): 0.951 | relative viability ([16]; first compound 0.05 µM): 0.786 | relative viability ([16]; first compound 0.1581 µM): 0.998 | relative viability ([16]; first compound 0.5 µM): 1.01 | relative viability ([17]; first compound 0.005 µM): 0.407 | relative viability ([17]; first compound 0.01581 µM): 0.446 | relative viability ([17]; first compound 0.05 µM): 0.471 | relative viability ([17]; first compound 0.1581 µM): 0.433 | relative viability ([17]; first compound 0.5 µM): 0.444 | relative viability ([18]; first compound 0.005 µM): 0.668 | relative viability ([18]; first compound 0.01581 µM): 0.551 | relative viability ([18]; first compound 0.05 µM): 0.574 | relative viability ([18]; first compound 0.1581 µM): 0.654 | relative viability ([18]; first compound 0.5 µM): 0.582 | relative viability ([19]; first compound 0.005 µM): 0.22 | relative viability ([19]; first compound 0.01581 µM): 0.248 | relative viability ([19]; first compound 0.05 µM): 0.188 | relative viability ([19]; first compound 0.1581 µM): 0.191 | relative viability ([19]; first compound 0.5 µM): 0.229 | relative viability ([20]; first compound 0.005 µM): 0.781 | relative viability ([20]; first compound 0.01581 µM): 0.759 | relative viability ([20]; first compound 0.05 µM): 0.628 | relative viability ([20]; first compound 0.1581 µM): 0.692 | relative viability ([20]; first compound 0.5 µM): 0.765 | relative viability ([21]; first compound 0.005 µM): 0.412 | relative viability ([21]; first compound 0.01581 µM): 0.441 | relative viability ([21]; first compound 0.05 µM): 0.382 | relative viability ([21]; first compound 0.1581 µM): 0.342 | relative viability ([21]; first compound 0.5 µM): 0.295 | relative viability ([22]; first compound 0.005 µM): 0.784 | relative viability ([22]; first compound 0.01581 µM): 0.803 | relative viability ([22]; first compound 0.05 µM): 0.734 | relative viability ([22]; first compound 0.1581 µM): 0.712 | relative viability ([22]; first compound 0.5 µM): 0.443 | relative viability ([23]; first compound 0.005 µM): 0.903 | relative viability ([23]; first compound 0.01581 µM): 1.08 | relative viability ([23]; first compound 0.05 µM): 0.839 | relative viability ([23]; first compound 0.1581 µM): 0.786 | relative viability ([23]; first compound 0.5 µM): 1.02
